ChEMBL document CHEMBL3085631, “GluK1 antagonists from 6-(tetrazolyl)phenyl decahydroisoquinoline derivatives: in vitro profile and in vivo analgesic efficacy” (Bioorg Med Chem Lett, 2013)

Assays:
Rattus norvegicus [1] = test: Analgesic activity in rat assessed as reversal of carrageenan-induced thermal hyperalgesia at 10 mg/kg, sc after 30 to 40 mins relative to vehicle-treated control; format: functional; details: route subcutaneous
[2] = biological target: Glutamate receptor ionotropic, kainate 1 (Homo sapiens, UniProt P39086); test: Displacement of [3H]ATPA from human Gluk1 receptor
Sequence of Glutamate receptor ionotropic, kainate 1 (P39086 whole entry): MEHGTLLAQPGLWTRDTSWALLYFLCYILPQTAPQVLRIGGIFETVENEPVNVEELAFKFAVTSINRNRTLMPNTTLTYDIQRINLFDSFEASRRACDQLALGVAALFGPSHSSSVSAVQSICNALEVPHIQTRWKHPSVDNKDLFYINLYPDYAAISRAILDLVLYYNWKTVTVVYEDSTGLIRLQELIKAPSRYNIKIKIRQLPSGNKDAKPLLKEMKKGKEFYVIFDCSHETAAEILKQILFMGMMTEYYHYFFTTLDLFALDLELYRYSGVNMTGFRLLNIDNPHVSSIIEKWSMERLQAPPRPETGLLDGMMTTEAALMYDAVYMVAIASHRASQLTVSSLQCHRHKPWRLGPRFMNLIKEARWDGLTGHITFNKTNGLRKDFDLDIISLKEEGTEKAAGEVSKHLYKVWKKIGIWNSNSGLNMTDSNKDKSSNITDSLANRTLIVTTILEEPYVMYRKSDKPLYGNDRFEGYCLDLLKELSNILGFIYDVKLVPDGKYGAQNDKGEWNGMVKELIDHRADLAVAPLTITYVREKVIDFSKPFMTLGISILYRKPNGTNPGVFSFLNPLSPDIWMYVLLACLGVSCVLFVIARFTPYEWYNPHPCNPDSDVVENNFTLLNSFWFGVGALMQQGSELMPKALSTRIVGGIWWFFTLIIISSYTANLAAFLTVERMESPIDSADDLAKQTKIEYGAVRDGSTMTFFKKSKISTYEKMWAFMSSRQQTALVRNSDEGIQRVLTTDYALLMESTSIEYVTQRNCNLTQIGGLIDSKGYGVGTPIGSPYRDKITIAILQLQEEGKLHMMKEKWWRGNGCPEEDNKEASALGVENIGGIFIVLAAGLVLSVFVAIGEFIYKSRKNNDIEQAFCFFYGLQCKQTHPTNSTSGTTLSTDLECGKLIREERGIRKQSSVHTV

Glutamate receptor 2 = Glutamate receptor 2 (Homo sapiens, UniProt P42262); test: Displacement of [3H]AMPA from homomeric recombinant GluA2 receptor (unknown origin)
Sequence of Glutamate receptor 2 (P42262 whole entry): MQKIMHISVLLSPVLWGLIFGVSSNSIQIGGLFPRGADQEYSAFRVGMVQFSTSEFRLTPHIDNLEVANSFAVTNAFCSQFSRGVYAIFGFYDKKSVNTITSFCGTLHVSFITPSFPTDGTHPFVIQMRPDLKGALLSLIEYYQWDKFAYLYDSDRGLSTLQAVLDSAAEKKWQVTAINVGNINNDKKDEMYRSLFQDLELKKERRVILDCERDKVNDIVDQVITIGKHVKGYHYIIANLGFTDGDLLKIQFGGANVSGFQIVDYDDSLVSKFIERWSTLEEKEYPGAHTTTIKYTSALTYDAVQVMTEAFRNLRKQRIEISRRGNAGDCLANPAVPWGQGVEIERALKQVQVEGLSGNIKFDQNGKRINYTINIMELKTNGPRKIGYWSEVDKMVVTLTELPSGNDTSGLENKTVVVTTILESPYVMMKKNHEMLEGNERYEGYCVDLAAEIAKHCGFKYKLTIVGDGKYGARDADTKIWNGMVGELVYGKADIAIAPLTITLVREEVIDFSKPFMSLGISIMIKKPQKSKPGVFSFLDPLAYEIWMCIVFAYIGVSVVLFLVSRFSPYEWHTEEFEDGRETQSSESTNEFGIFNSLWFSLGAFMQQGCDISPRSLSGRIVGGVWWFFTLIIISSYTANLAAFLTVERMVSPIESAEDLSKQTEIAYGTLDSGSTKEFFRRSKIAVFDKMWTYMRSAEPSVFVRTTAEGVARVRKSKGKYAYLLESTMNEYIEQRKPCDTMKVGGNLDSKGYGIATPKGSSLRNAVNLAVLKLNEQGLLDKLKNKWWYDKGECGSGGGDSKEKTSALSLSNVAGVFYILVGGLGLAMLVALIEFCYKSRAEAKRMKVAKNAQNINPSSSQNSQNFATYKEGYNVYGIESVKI

Rattus norvegicus [3] = test: Toxicity in Sprague-Dawley rat assessed as ataxia at 5 to 10 mg/kg, po by rotarod test; format: organism-based; set-up: dose 5-10 mg/kg, route oral; details: in vivo
Rattus norvegicus [4] = test: Toxicity in Sprague-Dawley rat assessed as sedation at 5 to 10 mg/kg, po by rotarod test; format: organism-based; set-up: dose 5-10 mg/kg, route oral; details: in vivo
Rattus norvegicus [5] = test: Analgesic activity in po dosed Sprague-Dawley rat assessed as reversal of formalin-induced late-phase paw-licking behavior after 1 hr; format: functional; details: read-out: MED
Rattus norvegicus [6] = test: Analgesic activity in po dosed rat assessed as reversal of carrageenan-induced thermal hyperalgesia after 60 mins; format: functional; details: 1 h, read-out: MED
[7] = Plasma concentration in rat at 5 mg/kg, po after 1 hr; format: ADME, organism-based; set-up: dose 5 mg/kg, route oral
[8] = Oral bioavailability in rat at 5 mg/kg; format: ADME, organism-based; details: in vivo

Row | Ki [2] [nM] | Ki (Glutamate receptor 2) [nM] | SMILES | Activity (Rattus norvegicus [1]) [%] | other results
1 | – | – | Cl.O=C(O)c1ccc(C[C@H]2CC[C@H]3CN[C@H](C(=O)O)C[C@H]3C2)cc1 | 67.8 | –
2 | 17000 | 335000 | O=C(O)[C@@H]1C[C@H]2C[C@@H](Oc3cc(Oc4ccccc4)ccc3-c3nnn[nH]3)CC[C@H]2CN1 | – | –
3 | 1700 | 9600 | O=C(O)[C@@H]1C[C@H]2C[C@@H](Oc3cc(CCc4ccccc4)ccc3-c3nnn[nH]3)CC[C@H]2CN1 | – | –
4 | 1100 | 252000 | COc1cccc(O[C@H]2CC[C@H]3CN[C@H](C(=O)O)C[C@H]3C2)c1-c1nnn[nH]1 | – | –
5 | 3200 | 128000 | Cc1cccc(N[C@H]2CC[C@H]3CN[C@H](C(=O)O)C[C@H]3C2)c1-c1nnn[nH]1 | – | –
6 | 12800 | 181000 | COc1cccc(N[C@H]2CC[C@H]3CN[C@H](C(=O)O)C[C@H]3C2)c1-c1nnn[nH]1 | – | –
7 | – | 6400 | O=C(O)[C@@H]1C[C@H]2C[C@@H](Nc3cccc(Cl)c3-c3nnn[nH]3)CC[C@H]2CN1 | – | –
8 | 900 | 2700 | O=C(O)[C@@H]1C[C@H]2C[C@@H](Oc3ccc(F)cc3-c3nnn[nH]3)CC[C@H]2CN1 | – | –
9 | 400 | 400 | O=C(O)[C@@H]1C[C@H]2C[C@@H](Oc3ccc(Cl)cc3-c3nnn[nH]3)CC[C@H]2CN1 | – | –
10 | – | 12000 | O=C(O)[C@@H]1C[C@H]2C[C@@H](Nc3ccc(F)cc3-c3nnn[nH]3)CC[C@H]2CN1 | – | –
11 | 1100 | 5200 | Cc1ccc(-c2nnn[nH]2)c(O[C@H]2CC[C@H]3CN[C@H](C(=O)O)C[C@H]3C2)c1 | – | –
12 | 1400 | 2000 | COc1ccc(-c2nnn[nH]2)c(O[C@H]2CC[C@H]3CN[C@H](C(=O)O)C[C@H]3C2)c1 | – | –
13 | 2900 | 6200 | Cc1ccc(-c2nnn[nH]2)c(N[C@H]2CC[C@H]3CN[C@H](C(=O)O)C[C@H]3C2)c1 | – | –
14 | 1100 | 3500 | O=C(O)[C@@H]1C[C@H]2C[C@@H](Nc3cc(-c4ccccc4)ccc3-c3nnn[nH]3)CC[C@H]2CN1 | – | –
15 | 422000 | 450000 | O=C(O)[C@@H]1C[C@H]2C[C@@H](Oc3c(F)cccc3-c3nnn[nH]3)CC[C@H]2CN1 | – | –
16 | 1000 | 13000 | O=C(O)[C@@H]1C[C@H]2C[C@@H](Oc3cc(-c4ccccc4Cl)ccc3-c3nnn[nH]3)CC[C@H]2CN1 | – | –
17 | 700 | 1700 | O=C(O)[C@@H]1C[C@H]2C[C@@H](Oc3cc(-c4cccc(Cl)c4)ccc3-c3nnn[nH]3)CC[C@H]2CN1 | – | –
18 | 20 | 3 | O=C(O)[C@@H]1C[C@H]2C[C@@H](Oc3cc(-c4ccc(Cl)cc4)ccc3-c3nnn[nH]3)CC[C@H]2CN1 | – | –
19 | 900 | 2200 | O=C(O)[C@@H]1C[C@H]2C[C@@H](Oc3cc(-c4nccs4)ccc3-c3nnn[nH]3)CC[C@H]2CN1 | – | –
20 | 90 | 4400 | O=C(O)[C@@H]1C[C@H]2C[C@@H](Oc3cc(-c4cccs4)ccc3-c3nnn[nH]3)CC[C@H]2CN1 | – | –
21 | 10000 | 20000 | O=C(O)[C@@H]1C[C@H]2C[C@@H](Oc3cc(-c4cccnc4)ccc3-c3nnn[nH]3)CC[C@H]2CN1 | – | –
22 | – | – | O=C(O)[C@@H]1C[C@H]2C[C@@H](CCc3nn[nH]n3)CC[C@H]2CN1 [TEZAMPANEL ANHYDROUS] | 133 | –

Row | SMILES | Ki [2] [nM] | Ki (Glutamate receptor 2) [nM] | Activity (Rattus norvegicus [1]) [%] | other results
23 | O=C(O)[C@@H]1C[C@H]2C[C@@H](Oc3ccccc3-c3nn[nH]n3)CC[C@H]2CN1 | 1200 | 16000 | 152.6 | –
24 | O=C(O)[C@@H]1C[C@H]2C[C@@H](Nc3ccccc3-c3nn[nH]n3)CC[C@H]2CN1 | 800 | 6000 | 124.8 | –
25 | Cl.O=C(O)[C@@H]1C[C@H]2C[C@@H](Oc3cc(OCc4ccccc4)ccc3-c3nnn[nH]3)CC[C@H]2CN1 | 160 | 17000 | 81.7 | –
26 | Cl.O=C(O)[C@@H]1C[C@H]2C[C@@H](Oc3cc(Cc4ccccc4)ccc3-c3nnn[nH]3)CC[C@H]2CN1 | 160 | 9600 | 89.8 | –
27 | Cl.O=C(O)[C@@H]1C[C@H]2C[C@@H](Cc3ccccc3-c3nnn[nH]3)CC[C@H]2CN1 | 3000 | 13000 | 73 | –
28 | Cl.O=C(O)[C@@H]1C[C@H]2C[C@@H](Sc3ccccc3-c3nnn[nH]3)CC[C@H]2CN1 | 600 | 22000 | 52.6 | –
29 | Cl.O=C(O)[C@@H]1C[C@H]2C[C@@H](Oc3cccc(Cl)c3-c3nnn[nH]3)CC[C@H]2CN1 | 200 | 30000 | 80.2 | Activity (Rattus norvegicus [3]): Toxic; Activity (Rattus norvegicus [4]): Toxic; minimal effective dose (Rattus norvegicus [5]): 1 mg/kg; minimal effective dose (Rattus norvegicus [6]): 3 mg/kg; concentration at 1 h [7]: 1020 ng/mL; bioavailability [8]: 42%
30 | Cl.O=C(O)[C@@H]1C[C@H]2C[C@@H](Oc3cc(-c4ccccc4)ccc3-c3nnn[nH]3)CC[C@H]2CN1 | 100 | 2300 | 100.8 | –
31 | CC(C)Oc1ccc(-c2nnn[nH]2)c(O[C@H]2CC[C@H]3CN[C@H](C(=O)O)C[C@H]3C2)c1.Cl | 900 | 12000 | 76.9 | –
